Our source for the EC50 and IC50 values is ChEMBL document CHEMBL1130989, “Design and synthesis of bio-isosteres of thymidine triphosphate” (Bioorg Med Chem Lett, 1998).

Molecules are shown by their SMILES.

Usually EC50 stands for the concentration at which the effect is half-maximal. As a reminder, the IC50 is the point on the concentration scale where inhibition reaches its midpoint. A higher IC50 goes with lower potency.

Assay [1] deals with CCRF-CEM. The assay can be described thus: Dose required for no significant anti-HIV activity against HIV-1 in human lymphocyte CEM cells. It is filed as functional, cell-based.
The test system of assay [2] is CCRF-CEM. The assay can be described thus: Dose required for no significant anti-HIV activity against HIV-2 in human lymphocyte CEM cells. The format is functional, cell-based.
Assay [3] has as its target Human immunodeficiency virus type 1 reverse transcriptase (Human immunodeficiency virus 1, UniProt Q72547). Description: Concentration required for no significant inhibitory activity against HIV-1 reverse transcriptase.

For the compound `Cc1cn(C2C=CC(CNC(=O)CC3(C)CC(O)CN3)O2)c(=O)[nH]c1=O` (stereo not given), the EC50 in assay [1] and in assay [2] was more than 200 µM in each case. For the same compound, the IC50 in assay [3] was more than 500 µM.
For the compound `Cc1cn(C2CC(O[Si](C)(C)C(C)(C)C)C(CNC(=O)CC3(C)CC(O[Si](c4ccccc4)(c4ccccc4)C(C)(C)C)CN3C(=O)OC(C)(C)C)O2)c(=O)[nH]c1=O` (stereo not given), the EC50 in assay [1] and in assay [2] was more than 200 µM throughout. The IC50 in assay [3] was more than 500 µM.
In the case of `Cc1cn(C2CC(O)C(CNC(=O)CC3(C)CC(O)CN3)O2)c(=O)[nH]c1=O` (stereo not given), the EC50 in assay [1] and in assay [2] was more than 200 µM throughout. Further, the IC50 in assay [3] is more than 500 µM.
Regarding `Cc1cn(C2C=CC(CNC(=O)CC3(C)CC(O[Si](c4ccccc4)(c4ccccc4)C(C)(C)C)CN3C(=O)OC(C)(C)C)O2)c(=O)[nH]c1=O` (stereo not given), the concentration giving a half-maximal response (EC50) in assay [1] and in assay [2] was more than 200 µM throughout. For the same compound, the 50% inhibitory concentration (IC50) in assay [3] is more than 500 µM.
`Cc1cn(C2C=CC(CNC(=O)CC3(C)CC(O)CN3C(=O)OC(C)(C)C)O2)c(=O)[nH]c1=O` (stereo not given): the EC50 in assay [1] and in assay [2] was more than 200 µM in each case. Besides, the IC50 in assay [3] was more than 500 µM.
